Experimental data taken from patent publication US11117899B2, “[1,2,4]triazolo[1,5-c]pyrimidine derivative as A2A receptor inhibitor” (MEDSHINE DISCOVERY INC., priority 2017, dated 2021).

The compounds below were run against T1, Human adenosine A2A receptor (Homo sapiens, UniProt P29274) (assay: Human adenosine A2A receptor calcium flux assay). Settings: A2A stable CHO cell strain, antagonist mode against agonist NECA at EC80, FLIPR Fluo-4.
T1 construct: host or cells: CHO
Type: cell-based
Method: Human adenosine A2A receptor calcium flux assay
A2A stable cell strain was constructed by Shanghai WuXi PharmaTech, and the host cell was CHO.
Fluo-4 Direct Kit (Invitrogen, Cat. No. F10471). After the fluorescent detection reagent (specifically binding to calcium ions and causing an increase in fluorescence signal) in the kit was incubated with the cells for a suitable period of time, the compound was added to stimulate the cells to cause changes in intracellular calcium flux, thereby causing changes in the fluorescent signal, which can reflect the strength of the agonistic or inhibitory activity of the compound.
F12+10% fetal bovine serum+geneticin 300 ug/ml+blasticidin 2 ug/ml Compound dilution buffer:
Hanks Balanced Salt Buffer (Invitrogen)+20 mM HEPES, configured before each use
The test compounds were dissolved in DMSO to prepare 10 mM stock solutions. The test compounds were diluted to 0.2 mM with DMSO, and the reference compound CGS-15943 was diluted to 0.015 mM with DMSO. Next, 10 points of three-fold serial dilutions were made with ECHO. 900 nl was transferred to the compound plate (Greiner-781280), and 30 ul of compound dilution buffer was added. The final starting concentration of the test compounds was 1 uM and CGS-15943 was 0.075 uM.
Cryopreserved A2A cells were resuscitated, and then resuspended in culture medium to 1×10^6 cells/ml. The suspension was seeded into 384-well polylysine-coated cell plates (Greiner-781946) at 20 μl/well and incubated overnight in a 5% CO2 incubator at 37° C.
The cell plate prepared the day before was taken out from the incubator, and 20 ul of 2× Fluo-4 Direct™ buffer was added to each well. The plate was incubated for 50 minutes in a 5% CO2 incubator at 37° C. and allowed to stand at room temperature for 10 minutes.
Dilution of agonist NECA: 10 points of three-fold serial dilutions were made with Echo for NECA from a starting concentration of 0.15 mM. 900 nL was then transferred to the corresponding compound plate; and then 30 μl of compound dilution buffer was added to the corresponding compound plate. The final starting concentration was 750 nM.
FLIPR instrument software was run. According to the programmed procedure, 10 ul of compound dilution buffer was added to the cell plate and the fluorescence signal was read. 10 ul of the agonist reference compound at the indicated concentration was then added to the cell plate and the fluorescent signal was read. After reading, the data was exported by the “Max-Min”, “Read 90 to Maximum allowed” method in the software, and the EC80 of the A2A cell line was calculated. The agonist was prepared at a concentration of 6× EC80. A 6× EC80 concentration of a reference compound agonist of the corresponding cells was prepared with a buffer solution, and added at 30 ul/well to the corresponding compound plate for use.
FLIPR instrument software was run. According to the programmed procedure, 10 μl of the test compounds and reference compound at an indicated concentration was added to the cell plate and the fluorescence signal was read. 10 ul of the reference compound agonist at a concentration of 6× EC80 was then added to the cell plate and the fluorescent signal was read. For the agonist detection of the compounds, the data was exported by the “Max-Min”, “Read 1 to 90” method in the software. For the antagonist detection of the compound, the data was exported by the “Max-Min”, “Read 90 to Maximum allowed” method in the software. Data were analyzed by GraphPad Prism 5.0 and the IC50 values of the test compounds were calculated.

T1 sequence (P29274 whole entry): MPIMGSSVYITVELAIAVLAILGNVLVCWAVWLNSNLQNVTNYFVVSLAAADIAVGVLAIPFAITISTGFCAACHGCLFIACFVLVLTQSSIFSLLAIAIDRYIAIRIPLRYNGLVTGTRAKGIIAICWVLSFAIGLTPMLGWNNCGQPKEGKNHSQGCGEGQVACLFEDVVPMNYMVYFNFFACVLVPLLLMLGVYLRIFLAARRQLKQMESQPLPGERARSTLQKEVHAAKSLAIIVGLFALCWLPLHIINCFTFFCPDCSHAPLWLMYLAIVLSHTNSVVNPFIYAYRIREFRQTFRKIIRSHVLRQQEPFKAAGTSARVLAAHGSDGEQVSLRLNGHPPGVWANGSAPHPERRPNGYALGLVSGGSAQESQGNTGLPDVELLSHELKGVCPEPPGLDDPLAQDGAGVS

Structure (SMILES)	IC50 [nM]
Nc1nc(-c2ccccc2)c(-c2ccc3[nH]nnc3c2)c2nc(C3CC3)nn12 [Example C-26]	4.34
COc1ccccc1-c1nc(N)n2nc(C)nc2c1-c1cc(C)nc(C(F)(F)F)c1 [Example C-27]	4.93
Nc1nc(-c2ccccc2)c(-c2ccc3[nH]nnc3c2)c2nc(C(F)(F)F)nn12 [Example C-29]	1.5
CCc1nc2c(-c3cc(C)nc(C(F)(F)F)c3)c(-c3ccccc3OC)nc(N)n2n1 [Example C-30]	2.99
COc1ccccc1-c1nc(N)n2nc(C(F)(F)F)nc2c1-c1cc(C)nc(C(F)(F)F)c1 [Example C-31]	14.1
CCc1nc2c(-c3ccc4nn[nH]c4c3)c(-c3ccccc3OC)nc(N)n2n1 [Example C-32]	38.9
Nc1nc(-c2ccc(F)cc2F)c(-c2ccc3[nH]nnc3c2)c2nc(C(F)(F)F)nn12 [Example C-34]	73.8
CCc1nc2c(-c3cc(C)nc(C(F)(F)F)c3)c(-c3ccccc3F)nc(N)n2n1 [Example C-35]	4.13
CCc1nc2c(-c3cc(C)nc(C(F)(F)F)c3)c(-c3ccc(F)cc3F)nc(N)n2n1 [Example C-36]	7.92
CCc1nc2c(-c3ccc4nn[nH]c4c3)c(-c3ccccc3F)nc(N)n2n1 [Example C-37]	4.68
CCc1nc2c(-c3ccc4nn[nH]c4c3)c(-c3ccc(F)cc3F)nc(N)n2n1 [Example C-38]	15.3
COc1cc(F)ccc1-c1nc(N)n2nc(C)nc2c1-c1cc(C)nc(C(F)(F)F)c1 [Example C-39]	10.9
Cc1cc(-c2c(-c3ccc(F)cc3)nc(N)n3nc(C(F)(F)F)nc23)cc(C(F)(F)F)n1 [Example C-40]	44.5
Nc1nc(-c2ccc(F)cc2)c(-c2ccc3[nH]nnc3c2)c2nc(C(F)(F)F)nn12 [Example C-42]	10.1
Cc1cc(-c2c(-c3ccc(F)cc3)nc(N)n3nc(CO)nc23)cc(Cl)n1 [Example C-44]	0.67
Nc1nc(-c2ccc(F)cc2)c(-c2ccc3nn[nH]c3c2)c2nc(CO)nn12 [Example C-45]	2.06

Structure (SMILES)	IC50 [nM]
Cc1cc(-c2c(-c3ccc(C)o3)nc(N)n3nc(C(F)(F)F)nc23)cc(C(F)(F)F)n1 [Example C-47]	13.6
Cc1ccc(-c2nc(N)n3nc(C(F)(F)F)nc3c2-c2ccc3[nH]nnc3c2)o1 [Example C-48]	11.3
Cc1nc2c(-c3ccc4[nH]nnc4c3)c(-c3ccc(F)cc3F)nc(N)n2n1 [Example C-49]	50
COc1ccccc1-c1nc(N)n2nc(CO)nc2c1-c1cc(C)nc(C(F)(F)F)c1 [Example C-50]	5.36
Cc1cc(-c2c(-c3ccc(F)cc3F)nc(N)n3nc(C)nc23)cc(C(F)(F)F)n1 [Example C-51]	13.6
Cc1cc(-c2c(-c3ccccc3F)nc(N)n3nc(CO)nc23)cc(C(F)(F)F)n1 [Example C-52]	1.75
Cc1cc(-c2c(-c3ccc(F)cc3F)nc(N)n3nc(CO)nc23)cc(C(F)(F)F)n1 [Example C-53]	7.73
Cc1cc(-c2c(-c3ccc(F)cc3)nc(N)n3nc(C)nc23)cc(Cl)n1 [Example C-54]	1.08
Cc1cc(-c2c(-c3ccc(F)cc3)nc(N)n3nc(CO)nc23)cc(C)n1 [Example C-55]	0.86
Cc1nc2c(-c3ccc4[nH]nnc4c3)c(-c3ccc(F)cc3)nc(N)n2n1 [Example C-59]	9.95
Cc1cc(-c2c(-c3ccc(F)cc3)nc(N)n3nc(C#N)nc23)cc(C)n1 [Example C-62]	0.83
Cc1cc(-c2c(-c3ccn(C)n3)nc(N)n3nc(C(F)(F)F)nc23)cc(C(F)(F)F)n1 [Example C-63]	7.22
Cc1cc(-c2c(-c3ccn(C)n3)nc(N)n3nc(C)nc23)cc(C(F)(F)F)n1 [Example C-64]	0.36
Cc1cc(-c2c(-c3ccc(F)cc3)nc(N)n3nc(CN(C)C)nc23)cc(Cl)n1 [Example C-65]	0.84
Cc1cc(-c2c(-c3ccc(C)o3)nc(N)n3nc(CO)nc23)cc(C(F)(F)F)n1 [Example C-66]	0.79
Cc1cc(-c2c(-c3ccc(C)o3)nc(N)n3nc(CO)nc23)cc(Cl)n1 [Example C-67]	0.26
